Measured values reported in patent US20140220477A1, “Polymers, substrates, methods for making such, and devices comprising the same” (Avertica, Inc., priority 2013, published 2014).
Counter-ions that a name gives are not always drawn.

Biological target: T1, mushroom tyrosinase (polyphenol oxidase) Sigma T3824 (Agaricus bisporus, UniProt C7FF04)
T1 construct: purchased Sigma T3824
Test: Testing of polymer production in enzymatic tyrosinase (polyphenol oxidase) reaction
Format: biochemical
Parameters: key: +++: Reacted within about 1 hour; ++: reacted within about 3 hours; +: reacted within about 24 hours; +/−: inconclusive results; −: no reaction
Method: All reactions were carried out in approximately 50 mM potassium phosphate buffer, pH 6.5 with approximately 5 mM substrate and mushroom tyrosinase (polyphenol oxidase) Sigma T3824 in an amount of 100 to 10,000 units. Reaction volumes varied from 200 μl to 2 ml. In cases where substrates were not completely solubilized, then a saturated solution was used as the limit of solubility. In some cases, a solution of DMSO was used to increase solubility of the substrates. The enzyme was tested and shown to retain activity up to 50% DMSO. The reactions were observed over a 24 hour period for the production of polymers, and the presence and color of polymer and solution was recorded.
The production of polymers in each reaction was visible as a precipitate in the well of a 96 well plate or in the reaction mixture on a glass slide.

[1] = as above, marked substrate(s) dissolved in 20% DMSO
[2] = approx. 50 mM potassium phosphate buffer pH 6.5, approx. 5 mM substrate, 100 to 10,000 units enzyme, observed over 24 hours

T1 sequence (C7FF04 1-392 limits assumed): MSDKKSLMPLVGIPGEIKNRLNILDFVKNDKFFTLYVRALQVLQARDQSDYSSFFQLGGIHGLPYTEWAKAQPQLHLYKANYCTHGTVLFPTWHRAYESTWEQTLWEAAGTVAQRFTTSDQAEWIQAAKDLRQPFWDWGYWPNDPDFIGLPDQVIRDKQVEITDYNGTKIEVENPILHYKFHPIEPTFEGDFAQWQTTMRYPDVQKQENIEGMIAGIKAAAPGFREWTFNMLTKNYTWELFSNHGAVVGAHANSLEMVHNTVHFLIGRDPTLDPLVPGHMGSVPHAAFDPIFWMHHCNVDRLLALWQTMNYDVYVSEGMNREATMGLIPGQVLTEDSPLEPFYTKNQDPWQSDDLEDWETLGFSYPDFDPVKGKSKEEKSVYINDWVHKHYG

SMILES	Result (polymer production in tyrosinase reaction) [1]	Result (polymer production in tyrosinase reaction) [2]
Oc1ccc(-c2cc(-c3ccc(O)cc3)cc(-c3ccc(O)cc3)c2)cc1 [1,3,5 Tris(4hydroxyphenyl)benzene]	+ (reacted within about 24 hours)	
Oc1ccc2c(c1)[nH]c1ccccc12 [2 Hydroxy carbazole]	−	
Oc1ccc2cc(O)ccc2c1 [2,6 dihydroxnaphthalene]		+ (reacted within about 24 hours)
Oc1ccc2[nH]ccc2c1 [5-hydroxyindole]		+++ (Reacted within about 1 hour)
Oc1ccc2cc[nH]c2c1 [6 Hydroxyindole]		++ (reacted within about 3 hours)
Cl.NCCc1ccccc1 [Beta phenylethylamine HCL]		+/−
CC1=NCCc2c1[nH]c1cc(O)ccc21 [Harmalol HCl dehydrate]	−	
c1ccc2[nH]ccc2c1 [Indole]		−
CN[C@@H](Cc1ccc(O)cc1)C(=O)O [N-methyl tyrosine]		++ (reacted within about 3 hours)
Cl.NCCc1ccc(O)cc1 [Tyramine HCl]		+++ (Reacted within about 1 hour)
NCCc1ccc(O)cc1 [Tyramine]		+++ (Reacted within about 1 hour)
N[C@@H](Cc1ccc(O)cc1)C(=O)O [Tyrosine]		++ (reacted within about 3 hours)
